Assay [1] concerns Huh-7. Put plainly: Induction of apoptosis in human HuH7 cells assessed as cell death after 24 hrs by trypan blue dye exclusion assay. It counts as functional, cell-based.
Assay [2] has as its system Huh-7. Put plainly: Induction of apoptosis in human HuH7 cells assessed as change in nuclear morphology after 48 hrs using Hoechst staining. The format is functional.
Assay [3] has as its system Huh-7. Briefly: Induction of apoptosis in human HuH7 cells assessed as change in nuclear morphology after 72 hrs using Hoechst staining. The format is functional.
The subject of assay [4] is Huh-7. Put plainly: Induction of apoptosis in human HuH7 cells assessed as change in nuclear morphology after 24 hrs using Hoechst staining. The format is functional.
The subject of assay [5] is Huh-7. Put plainly: Induction of apoptosis in human HuH7 cells assessed as increase in caspase-3 activity after 12 hrs. It counts as functional, cell-based.
Assay [6] deals with Huh-7. Briefly: Induction of necrosis in human HuH7 cells. It counts as functional, cell-based.

This is an account of results in ChEMBL document CHEMBL1153642, “Induction of apoptosis in HuH-7 cancer cells by monoterpene and beta-carboline indole alkaloids isolated from the leaves of Tabernaemontana elegans” (2009).

Activity calls are given as the source filed them. The calls are words filed in the database; no cut-off is given here.

Consider `Cc1cc2c([nH]c3ccccc32)c2[n+]1C(C)NCC2` (configuration not stated), for which the outcome with Huh-7 [1] was Active.
Regarding `C/C=C1/CN(C)[C@H]2Cc3c([nH]c4ccccc34)C(=O)C[C@H]1[C@@H]2C(=O)OC` [VOBASINE], the Activity in the assay with Huh-7 [2] was below 25%; in the assay on Huh-7 [3], below 25%; in the assay with Huh-7 [4], 40%. In addition, the outcome in the assay on Huh-7 [5] was Active. For the same compound, in the assay on Huh-7 [6], the inhibition entry was “inactive”.
As to `CC[C@@H]1CN(C)[C@H]2Cc3c([nH]c4ccccc34)C(=O)C[C@@H]1[C@H]2C(=O)OC` [TABERNAEMONTANINE], the Activity in the assay on Huh-7 [2] is on record as below 25%; in the assay with Huh-7 [3], below 25%; in the assay on Huh-7 [4] it was 40%. Further, the result in the assay on Huh-7 [5] was Active. Further, in the assay on Huh-7 [6], the inhibition entry was “inactive”.
Turning to `Cc1cc2c3ccccc3n3c2c(n1)CCNC3C` (configuration not stated), in the assay on Huh-7 [1], the outcome was Active.
